Experimental data as given in US4840966A, “Method of treating hypertension” (Mitsui Norin Co., Ltd., priority 1987, dated 1989).
Like-named read-outs stand apart in the source and are kept apart here.

Assays:
carboxypeptidase A = target: T1, carboxypeptidase A (Bos taurus, UniProt P00730); test: Inhibition of carboxypeptidase A; type: biochemical
T1 sequence (P00730 111-419): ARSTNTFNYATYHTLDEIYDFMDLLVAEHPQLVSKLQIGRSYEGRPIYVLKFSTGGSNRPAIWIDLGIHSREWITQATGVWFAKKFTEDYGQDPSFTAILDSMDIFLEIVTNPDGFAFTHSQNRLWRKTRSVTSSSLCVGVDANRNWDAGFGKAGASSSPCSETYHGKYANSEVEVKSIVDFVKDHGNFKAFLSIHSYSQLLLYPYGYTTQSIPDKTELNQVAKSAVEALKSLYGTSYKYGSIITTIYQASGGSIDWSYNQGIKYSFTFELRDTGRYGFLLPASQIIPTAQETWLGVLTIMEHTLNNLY

[1] = target: T2, ACE (Angiotensin I converting enzyme) (Sus scrofa, UniProt F1RRW5); test: Inhibition of ACE (Hip-His-Leu substrate, O-phthal aldehyde fluorescence); type: biochemical, pig
T2 construct: the ACE obtained from renal cortex of pig; from tissue; host or cells: renal cortex of pig
T2 sequence (F1RRW5 34-1309): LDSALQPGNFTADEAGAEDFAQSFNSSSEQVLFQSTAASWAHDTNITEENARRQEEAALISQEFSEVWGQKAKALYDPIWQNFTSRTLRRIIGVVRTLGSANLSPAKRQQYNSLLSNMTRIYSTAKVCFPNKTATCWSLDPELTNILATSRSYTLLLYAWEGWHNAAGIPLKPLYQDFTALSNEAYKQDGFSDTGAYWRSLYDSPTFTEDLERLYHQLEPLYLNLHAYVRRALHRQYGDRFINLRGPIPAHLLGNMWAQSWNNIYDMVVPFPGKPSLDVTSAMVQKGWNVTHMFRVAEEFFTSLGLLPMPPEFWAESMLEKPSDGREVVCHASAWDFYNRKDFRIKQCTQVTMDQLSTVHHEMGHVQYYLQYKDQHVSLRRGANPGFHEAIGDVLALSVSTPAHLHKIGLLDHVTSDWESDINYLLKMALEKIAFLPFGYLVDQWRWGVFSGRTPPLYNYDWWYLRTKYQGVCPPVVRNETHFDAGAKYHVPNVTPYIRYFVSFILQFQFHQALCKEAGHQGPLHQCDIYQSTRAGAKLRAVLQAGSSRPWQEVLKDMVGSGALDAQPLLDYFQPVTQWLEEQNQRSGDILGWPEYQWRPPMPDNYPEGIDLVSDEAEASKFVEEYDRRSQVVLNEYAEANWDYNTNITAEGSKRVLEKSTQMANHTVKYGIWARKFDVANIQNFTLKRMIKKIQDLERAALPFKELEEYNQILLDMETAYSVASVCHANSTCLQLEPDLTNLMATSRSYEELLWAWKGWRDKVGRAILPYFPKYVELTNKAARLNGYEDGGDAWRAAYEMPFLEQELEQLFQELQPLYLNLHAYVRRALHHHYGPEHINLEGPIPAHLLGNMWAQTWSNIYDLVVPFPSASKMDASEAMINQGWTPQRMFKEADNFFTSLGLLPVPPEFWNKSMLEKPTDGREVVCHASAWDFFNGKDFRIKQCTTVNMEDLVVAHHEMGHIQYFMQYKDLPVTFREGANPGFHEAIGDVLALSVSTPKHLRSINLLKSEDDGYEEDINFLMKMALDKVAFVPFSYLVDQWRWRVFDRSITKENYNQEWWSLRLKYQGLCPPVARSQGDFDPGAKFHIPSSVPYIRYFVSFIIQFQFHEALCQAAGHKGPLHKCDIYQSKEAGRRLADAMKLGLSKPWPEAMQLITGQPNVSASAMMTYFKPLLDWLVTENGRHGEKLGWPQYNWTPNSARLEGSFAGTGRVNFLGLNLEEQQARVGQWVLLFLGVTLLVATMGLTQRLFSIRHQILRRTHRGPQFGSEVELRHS
Text: The activity of ACE inhibition was expressed by the equation
in which S was the intensity of the fluorescence in the above described procedure with the sample solution, A was the value of the blank test by replacing the sample solution with the same volume of water and B was the value obtained by replacing the enzyme solution with the same volume of pure water.

[2] = test system: Spontaneously Hypertensive Rats; test: Systolic blood pressure of SHR fed epigallocatechin gallate in the diet (FIG. 4); type: in vivo; conditions: 8 weeks old, 0.5% in diet, after seven weeks feeding, control continued to rise
Text: Three SHR (Spontaneously Hypertensive Rats) of 8 weeks old were fed on the diet which consisted of 99.5% of normal diet and 0.5% of epigallocatechin gallate mixed together. As a control two SHR of the same stock were fed on a 100% normal diet. After seven weeks feeding the blood pressure of tea polyphenol fed group levelled off while the blood pressure of the control group continued to rise. In FIG. 4, the curve A denotes the systolic blood pressure of control group while B denotes the systolic blood pressure of test group.

[3] = Acute oral toxicity in mice (LD50); conditions: mouse, in vivo, male ICR mice, 8 weeks old, read-out: LD50 of one week
[4] = ACE from renal cortex of pig, Hip-His-Leu substrate, 37° C.

IC50 (carboxypeptidase A) [µM] | IC50 [1, 4] [µM] | SMILES | IC50 [1] [µM] | blood pressure (in words) [2] | LD50 at 168 h [3] [mg/kg]
> 5000 | 400 | O=c1c(O)cc([C@H]2Oc3cc(O)cc(O)c3C[C@H]2O)cc2c([C@H]3Oc4cc(O)cc(O)c4C[C@H]3O)cc(O)c(O)c12 [Free theaflavin, free theaflavin] | – | – | –
> 5000 | 115 | O=C(O[C@@H]1Cc2c(O)cc(O)cc2O[C@@H]1c1cc(O)c(=O)c2c(O)c(O)cc([C@H]3Oc4cc(O)cc(O)c4C[C@H]3O)c2c1)c1cc(O)c(O)c(O)c1 [Theaflavin monogallate A, theaflavin monogallate A] | – | – | –
> 5000 | 110 | O=C(O[C@@H]1Cc2c(O)cc(O)cc2O[C@@H]1c1cc(O)c(O)c2c(=O)c(O)cc([C@H]3Oc4cc(O)cc(O)c4C[C@H]3O)cc12)c1cc(O)c(O)c(O)c1 [Theaflavin monogallate B, theaflavin monogallate B] | – | – | –

SMILES | IC50 (carboxypeptidase A) [µM] | IC50 [1, 4] [µM] | IC50 [1] [µM] | blood pressure (in words) [2] | LD50 at 168 h [3] [mg/kg]
O=C(O[C@@H]1Cc2c(O)cc(O)cc2O[C@@H]1c1cc(O)c(O)c(O)c1)c1cc(O)c(O)c(O)c1 [(-)-Epigallocatechin gallate, (-)-epigallocatechin gallate] | 3000 | – | 90 | levelled off | 2310
